Experimental data reported in article PMC3791449, “Mechanism of amyloid β−protein dimerization determined using single−molecule AFM force spectroscopy” (Scientific Reports, 2013).
Entries after “also recorded” stand apart in the source; their conditions may differ.

tested on: misfolded Aβ dimers; experiment: Contour length analysis of interacting segments within Aβ dimers; type: binding, human; details: contour length profiles, Fig. 5
From the text: We used the contour length measurements to identify segments of the peptides involved in dimer formation. The measured contour length is comprised of the length of the flexible tethers used for peptide immobilization and the length of the segment of the peptide from the anchoring point to the rupture position. The latter, according to the schematic in Fig. 1, was obtained by subtracting the lengths of all linkers from the measured contour lengths.
Probing interactions of Aβ peptides within a dimer by SMFS provides a pattern of peptide interactions within the dimers. According to the immobilization procedure, the peptide is covalently bound at its N−terminal cysteine. The experimentally measured contour length consists of two major components, the lengths of the flexible tethers used for peptide immobilization and the length of the peptide segment between the N−terminus and the segment of the peptide involved in interpeptide interactions. Therefore, the position of the peak on the force−distance curve is defined by the peptide length between the N−terminus and the interacting segment. […] The closer the interacting segment is to the N−terminus, the shorter the contour length will be when measured by AFM. […] The contour length of PEG 3400 was estimated to be 22.0 ± 0.9 nm[28]. Lengths of both aminopropyl silatrane (APS) and MAS were ~ 2.5 nm[13]. Therefore, the total length of all linkers was 24.5 ± 0.9 nm. In addition, the distance between N−termini of two peptides was estimated to be 1.0 nm.
All cysteinyl−Aβ peptides were synthesized using 9−fluorenylmethoxycarbonyl (FMOC) chemistry and purified by reverse phase high performance liquid chromatography (RP−HPLC). The identity and purity (usually > 97%) of the peptides were confirmed by amino acid analysis followed by mass spectrometry and RP−HPLC. Functionalization of AFM tips and mica substrates were prepared according to previously published procedures. Briefly, 20 nM Aβ monomers were immobilized on mica functionalized with aminopropyl silatrane (APS) via PEG 3400 tethers and on AFM tips through maleimide silatrane (MAS). For DFS study, the tip retraction speeds ranged from 100 nm/s to 4000 nm/s. The dwell time was set at 0.3 s when retraction speed reached 1000 nm/s and above. Force curves with rupture event were subject to WLC analysis, as shown below. [drawing 1] Rupture force distributions were fitted with a probability density function: [drawing 2] Dynamic force spectra were fitted with Bell−Evans model[21]: [drawing 3] […] Positions of interacting segments of Aβ monomers within dimers were estimated by subtracting from the measured contour lengths the lengths of all linkers and the distance between N−termini of monomers (see Fig. 1a). […]

Row | Substance | predominant interpeptide interaction pattern in dimer
1 | Aβ40: alloform of human amyloid β−protein; cysteinyl−Aβ peptide, Cys residue placed at the N−terminus | primary interactions that occur via the N−termini; also recorded: predominate contribution of N−terminal interactions
2 | Aβ42: alloform of human amyloid β−protein with two additional C−terminal residues; cysteinyl−peptide | interactions within the C−terminus
3 | [VPV]Aβ40: Aβ40 mutant with VPV substitutions (Gly33Val−Val36Pro−Gly38Val); cysteinyl−peptide | increased interactions between the central and C−terminal segments
4 | [VPV]Aβ42: Aβ42 with VPV substitutions (Gly33Val−Val36Pro−Gly38Val); cysteinyl−peptide | interactions within the central segments

tested on: misfolded Aβ dimers; experiment: Dynamic force spectroscopy (DFS) of misfolded Aβ dimers; type: binding, human; details: DFS; [VPV] mutant vs wild type
Procedure: The cysteinyl−peptides were covalently immobilized on the tip and the surface via flexible tethers terminated with maleimide groups. […] Peptide aggregation was minimized by using a very low peptide concentration (20 nM) during the coupling reaction with the functionalized mica surface and the tips. Probing was performed by multiple approach−retraction cycles over various spots of the mica surface.
In the DFS approach, multiple force measurements were performed at different pulling rates and the data were grouped into several clusters according to the selected loading rates. […] After extrapolating the data to the zero pulling rate, the intercept and the slope of the linear plots (DFS spectrum) produced characteristics of the complexes, including their stability (off−rate constant koff) and the energy barrier position (xβ)[20][21].
The mean values were calculated from this dataset (Supplementary Table S1) and equation (4) (see Methods) was used to extract the barrier height (ΔG), along with xβ values, to generate the energy profile for the Aβ40 dissociation process.
All cysteinyl−Aβ peptides were synthesized using 9−fluorenylmethoxycarbonyl (FMOC) chemistry and purified by reverse phase high performance liquid chromatography (RP−HPLC). […] Functionalization of AFM tips and mica substrates were prepared according to previously published procedures. Briefly, 20 nM Aβ monomers were immobilized on mica functionalized with aminopropyl silatrane (APS) via PEG 3400 tethers and on AFM tips through maleimide silatrane (MAS). For DFS study, the tip retraction speeds ranged from 100 nm/s to 4000 nm/s. The dwell time was set at 0.3 s when retraction speed reached 1000 nm/s and above. Force curves with rupture event were subject to WLC analysis, as shown below. [drawing 1] Rupture force distributions were fitted with a probability density function: [drawing 2] Dynamic force spectra were fitted with Bell−Evans model[21]: [drawing 3] The energy profiles were reconstructed according to previous papers, using the equation below. [drawing 4] Positions of interacting segments of Aβ monomers within dimers were estimated by subtracting from the measured contour lengths the lengths of all linkers and the distance between N−termini of monomers (see Fig. 1a). The contour length of PEG was estimated with the following equation[28]: [drawing 5] Where Lc(F) is the contour length, Ns is the average number of monomers, Lplanar is the length of monomers with planar conformation, Lhelical is the length of monomers with helical conformation, ΔG(F) is the free energy difference at zero appling force. The Ns is 77 ± 10 for 3400 Da PEG. The Lplanar and Lhelical are 3.58 Å and 2.8 Å, respectively. The ΔG(F) is fixed at 3 kBT. […] All error bars represent SEM. Detailed methods can be found in Supplementary Information.
A 50 mM 1−(3−aminopropyl) silatrane (APS) stock solution was prepared by dissolving the APS powder in deionized (DI) water. The 1.67 mM stock solution of maleimide−polyethylene glycol−succinimidyl valerate (MAL−PEG−SVA; 3.4 kDa Laysan Bio Inc, Arab, AL) was prepared in DMSO (Sigma−Aldrich Inc.) and stored at −20°C. The 10 mM Tris (2−carboxyethyl) phosphine (TCEP) hydrochloride (Hampton Research Inc.) and the 2.94 mM solution of maleimide silatrane (MAS) were prepared in DI water and stored at −20°C. A 10 mM stock solution of β−mercaptoethanol was prepared in 10 mM sodium phosphate, pH 7.4 (“phosphate buffer”) and kept at 4°C. Unless otherwise specified, other reagents used in the experiments were of analytical grade from Sigma−Aldrich.

Row | Substance | lifetime increase of dimer vs WT counterpart
5 | [VPV]Aβ42: Aβ42 with VPV substitutions (Gly33Val−Val36Pro−Gly38Val); cysteinyl−peptide | more than three times higher

same assay, conditions: experiment #1; Bell-Evans fit, extrapolated to zero force; retraction 100-4000 nm/s

Row | Substance | koff (dissociation rate without applied force) [s⁻¹]
6 | Aβ40: alloform of human amyloid β−protein; cysteinyl−Aβ peptide, Cys residue placed at the N−terminus | 9.4
7 | [VPV]Aβ40: Aβ40 mutant with VPV substitutions (Gly33Val−Val36Pro−Gly38Val); cysteinyl−peptide | 2.2
8 | [VPV]Aβ42: Aβ42 with VPV substitutions (Gly33Val−Val36Pro−Gly38Val); cysteinyl−peptide | 1.1

same assay, conditions: experiment #1; Bell-Evans fit; retraction 100-4000 nm/s, approach 400 nm/s, trigger force 100 pN, dwell 0.3 s at ≥1000 nm/s; N-terminal Cys tethered, 20 nM coupling

Row | Substance | xβ (potential barrier location) [nm]
9 | Aβ40: alloform of human amyloid β−protein; cysteinyl−Aβ peptide, Cys residue placed at the N−terminus | 0.203
10 | Aβ42: alloform of human amyloid β−protein with two additional C−terminal residues; cysteinyl−peptide | 0.299
11 | [VPV]Aβ40: Aβ40 mutant with VPV substitutions (Gly33Val−Val36Pro−Gly38Val); cysteinyl−peptide | 0.361
12 | [VPV]Aβ42: Aβ42 with VPV substitutions (Gly33Val−Val36Pro−Gly38Val); cysteinyl−peptide | 0.451

same assay, conditions: experiment #2; Bell-Evans fit, extrapolated to zero force

Row | Substance | koff (dissociation rate without applied force) [s⁻¹]
13 | Aβ40: alloform of human amyloid β−protein; cysteinyl−Aβ peptide, Cys residue placed at the N−terminus | 4.7
14 | [VPV]Aβ40: Aβ40 mutant with VPV substitutions (Gly33Val−Val36Pro−Gly38Val); cysteinyl−peptide | 1.7
15 | [VPV]Aβ42: Aβ42 with VPV substitutions (Gly33Val−Val36Pro−Gly38Val); cysteinyl−peptide | 2.1

same assay, conditions: experiment #2; Bell-Evans fit; retraction 100-4000 nm/s

Row | Substance | xβ (potential barrier location) [nm]
16 | Aβ40: alloform of human amyloid β−protein; cysteinyl−Aβ peptide, Cys residue placed at the N−terminus | 0.257
17 | Aβ42: alloform of human amyloid β−protein with two additional C−terminal residues; cysteinyl−peptide | 0.260
18 | [VPV]Aβ40: Aβ40 mutant with VPV substitutions (Gly33Val−Val36Pro−Gly38Val); cysteinyl−peptide | 0.293
19 | [VPV]Aβ42: Aβ42 with VPV substitutions (Gly33Val−Val36Pro−Gly38Val); cysteinyl−peptide | 0.337

same assay, conditions: experiment #3; Bell-Evans fit, extrapolated to zero force

Row | Substance | koff (dissociation rate without applied force) [s⁻¹]
20 | Aβ40: alloform of human amyloid β−protein; cysteinyl−Aβ peptide, Cys residue placed at the N−terminus | 12.9
21 | [VPV]Aβ40: Aβ40 mutant with VPV substitutions (Gly33Val−Val36Pro−Gly38Val); cysteinyl−peptide | 1.9
22 | [VPV]Aβ42: Aβ42 with VPV substitutions (Gly33Val−Val36Pro−Gly38Val); cysteinyl−peptide | 1.5

same assay, conditions: experiment #3; Bell-Evans fit; retraction 100-4000 nm/s

Row | Substance | xβ (potential barrier location) [nm]
23 | Aβ40: alloform of human amyloid β−protein; cysteinyl−Aβ peptide, Cys residue placed at the N−terminus | 0.206
24 | Aβ42: alloform of human amyloid β−protein with two additional C−terminal residues; cysteinyl−peptide | 0.262
25 | [VPV]Aβ40: Aβ40 mutant with VPV substitutions (Gly33Val−Val36Pro−Gly38Val); cysteinyl−peptide | 0.262
26 | [VPV]Aβ42: Aβ42 with VPV substitutions (Gly33Val−Val36Pro−Gly38Val); cysteinyl−peptide | 0.387

same assay, conditions: from mean koff of independent experiments, equation (4)

Row | Substance | barrier height (ΔG) of dimer dissociation [kBT]
27 | Aβ40: alloform of human amyloid β−protein; cysteinyl−Aβ peptide, Cys residue placed at the N−terminus | 27.3
28 | [VPV]Aβ40: Aβ40 mutant with VPV substitutions (Gly33Val−Val36Pro−Gly38Val); cysteinyl−peptide | 28.8
29 | [VPV]Aβ42: Aβ42 with VPV substitutions (Gly33Val−Val36Pro−Gly38Val); cysteinyl−peptide | 29.0

same assay, conditions: mean ± SEM of three experiments; Bell-Evans fit, extrapolated to zero force

Row | Substance | koff (dissociation rate without applied force) [s⁻¹]
30 | Aβ40: alloform of human amyloid β−protein; cysteinyl−Aβ peptide, Cys residue placed at the N−terminus | 9.0 ± 2.4
31 | [VPV]Aβ40: Aβ40 mutant with VPV substitutions (Gly33Val−Val36Pro−Gly38Val); cysteinyl−peptide | 1.9 ± 0.1
32 | [VPV]Aβ42: Aβ42 with VPV substitutions (Gly33Val−Val36Pro−Gly38Val); cysteinyl−peptide | 1.6 ± 0.3

same assay, conditions: mean ± SEM of three experiments; Bell-Evans fit; retraction 100-4000 nm/s

Row | Substance | xβ (potential barrier location) [nm]
33 | Aβ40: alloform of human amyloid β−protein; cysteinyl−Aβ peptide, Cys residue placed at the N−terminus | 0.222 ± 0.018
34 | Aβ42: alloform of human amyloid β−protein with two additional C−terminal residues; cysteinyl−peptide | 0.274 ± 0.013
35 | [VPV]Aβ40: Aβ40 mutant with VPV substitutions (Gly33Val−Val36Pro−Gly38Val); cysteinyl−peptide | 0.305 ± 0.029
36 | [VPV]Aβ42: Aβ42 with VPV substitutions (Gly33Val−Val36Pro−Gly38Val); cysteinyl−peptide | 0.392 ± 0.034

same assay, conditions: mean ± SEM of three experiments; DFS, zero applied force

Row | Substance | dimer lifetime (1/koff) [s]
37 | Aβ40: alloform of human amyloid β−protein; cysteinyl−Aβ peptide, Cys residue placed at the N−terminus | 0.11
38 | [VPV]Aβ40: Aβ40 mutant with VPV substitutions (Gly33Val−Val36Pro−Gly38Val); cysteinyl−peptide | 0.53
39 | [VPV]Aβ42: Aβ42 with VPV substitutions (Gly33Val−Val36Pro−Gly38Val); cysteinyl−peptide | 0.63 ± 0.12
